Experimental data: patent publication US10175256B2, “Compositions and methods utilizing lysophosphatidylcholine scaffolds” (National University Of Singapore, priority 2013, dated 2019)
“And” between values parts separate entries of the source, which are not always exact repeats. Identical values can stand only once.

Test system: mouse Mfsd2a
Test: Cell-based free fatty acid transport/uptake in Mfsd2a expressing HEK293 cells (mass spectrometry, TLC; Table 1)
Conditions: mock HEK293 cells, 100 uM fatty acid/BSA overnight
How it was run: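 HEK293 cells expressing mouse Mfsd2a, or mock controls, were incubated overnight with 100 μM BSA-complexed fatty acids. Lipids were extracted in hexane:isopropanol (3:2) and phospholipid species quantified by HPLC-MS/MS against spiked internal standards. For TLC, cells received 100 μM [^14C]-oleate overnight, and phospholipids and neutral lipids were resolved.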

SMILES: CCCCCCCCCCCCCCCC(=O)O [Palmitic acid]
- % DHA in PC + lysoPC: 0.04025% and 0.03837% and 0.03939%
- % DHA in PE + lysoPE: 10.87% and 12.13% and 11.44%
- % DHA in PI and lysoPI: 0.01445% and 0.01615% and 0.01441%
- % DHA in PS: 0.1091% and 0.1184% and 0.1391%
- LPI16:0 in total phospholipid: 0.004053 mol percent and 0.002611 mol percent and 0.002621 mol percent
- LPI18:0 in total phospholipid: 0.0326 mol percent and 0.02611 mol percent and 0.03227 mol percent
- LPI20:4 in total phospholipid: 0.002114 mol percent and 0.002121 mol percent and 0.002948 mol percent
- LPI22:6 in total phospholipid: 0.009339 mol percent and 0.008648 mol percent and 0.007698 mol percent
- Lyso PE16:0p in total phospholipid: 2.649 mol percent and 2.594 mol percent and 2.175 mol percent
- Lyso PE18:0p in total phospholipid: 0.4161 mol percent and 0.4127 mol percent and 0.4189 mol percent
- Lyso PE18:1p in total phospholipid: 0.2081 mol percent and 0.1327 mol percent and 0.1216 mol percent
- Lyso PE20:0p in total phospholipid: 0.1803 mol percent and 0.2801 mol percent and 0.1892 mol percent
- LysoPC16:0e in total phospholipid: 0.003391 mol percent and 0.004221 mol percent and 0.003565 mol percent
- LysoPC16:0 in total phospholipid: 0.02383 mol percent and 0.02127 mol percent and 0.02008 mol percent
- LysoPC16:1 in total phospholipid: 0.006406 mol percent and 0.00591 mol percent and 0.006781 mol percent
- LysoPC18:0e in total phospholipid: 0.002449 mol percent and 0.002111 mol percent and 0.001826 mol percent
- LysoPC18:0 in total phospholipid: 0.0065 mol percent and 0.007261 mol percent and 0.008694 mol percent
- LysoPC18:1 in total phospholipid: 0.01564 mol percent and 0.01503 mol percent and 0.01617 mol percent
- LysoPC18:2 in total phospholipid: 0.00179 mol percent and 0.001266 mol percent and 0.001826 mol percent
- LysoPC20:4 in total phospholipid: 0.000565 mol percent and 0.000507 mol percent and 0.000435 mol percent
- LysoPC22:5 in total phospholipid: 0.000565 mol percent and 0.000507 mol percent and 0.000609 mol percent
- LysoPE16:1 in total phospholipid: 0.1387 mol percent and 0.1179 mol percent and 0.1351 mol percent
- LysoPE18:0 in total phospholipid: 0.1248 mol percent and 0.1327 mol percent and 0.06756 mol percent
- LysoPE18:1 in total phospholipid: 0.06936 mol percent and 0.1032 mol percent and 0.1081 mol percent
- PC32:0e in total phospholipid: 1.801 mol percent and 1.766 mol percent and 1.854 mol percent
- PC32:0 in total phospholipid: 2.545 mol percent and 2.525 mol percent and 2.567 mol percent
- PC32:1e in total phospholipid: 2.44 mol percent and 2.388 mol percent and 2.446 mol percent
- PC32:1 in total phospholipid: 9.659 mol percent and 9.461 mol percent and 9.558 mol percent
- PC32:2 in total phospholipid: 1.526 mol percent and 1.443 mol percent and 1.528 mol percent
- PC34:1e in total phospholipid: 4.963 mol percent and 4.847 mol percent and 4.905 mol percent
- PC34:1 in total phospholipid: 19.9344 mol percent and 19.96 mol percent and 20.13 mol percent
- PC34:2e in total phospholipid: 1.578 mol percent and 1.538 mol percent and 1.559 mol percent
- PC34:2 in total phospholipid: 6.328 mol percent and 6.182 mol percent and 6.318 mol percent
- PC34:3e in total phospholipid: 0.2382 mol percent and 0.2269 mol percent and 0.2367 mol percent
- PC34:3 in total phospholipid: 0.6391 mol percent and 0.6013 mol percent and 0.6247 mol percent
- PC36:1e in total phospholipid: 1.472 mol percent and 1.429 mol percent and 1.48 mol percent
- PC36:1 in total phospholipid: 2.714 mol percent and 2.676 mol percent and 2.731 mol percent
- PC36:2e in total phospholipid: 1.667 mol percent and 1.629 mol percent and 1.643 mol percent
- PC36:2 in total phospholipid: 5.976 mol percent and 5.824 mol percent and 5.922 mol percent
- PC36:3e in total phospholipid: 0.8048 mol percent and 0.7841 mol percent and 0.7962 mol percent
- PC36:3 in total phospholipid: 1.196 mol percent and 1.137 mol percent and 1.173 mol percent
- PC36:4e in total phospholipid: 0.4288 mol percent and 0.4113 mol percent and 0.4345 mol percent
- PC36:4 in total phospholipid: 0.338 mol percent and 0.3342 mol percent and 0.3346 mol percent
- PC36:5e in total phospholipid: 0.345 mol percent and 0.3295 mol percent and 0.3467 mol percent
- PC36:5 in total phospholipid: 0.06048 mol percent and 0.05513 mol percent and 0.06303 mol percent
- PC36:6 in total phospholipid: 0.04691 mol percent and 0.05294 mol percent and 0.05486 mol percent
- PC38:1e in total phospholipid: 0.3684 mol percent and 0.3499 mol percent and 0.3643 mol percent
- PC38:3e in total phospholipid: 0.4177 mol percent and 0.3847 mol percent and 0.3977 mol percent
- PC38:3 in total phospholipid: 0.5512 mol percent and 0.5341 mol percent and 0.5477 mol percent
- PC38:4e in total phospholipid: 0.4224 mol percent and 0.3985 mol percent and 0.4045 mol percent
- PC38:4 in total phospholipid: 0.4716 mol percent and 0.4393 mol percent and 0.4567 mol percent
- PC38:5e in total phospholipid: 0.3578 mol percent and 0.3449 mol percent and 0.3552 mol percent
- PC38:5 in total phospholipid: 0.2477 mol percent and 0.2424 mol percent and 0.2561 mol percent
- PC38:6 in total phospholipid: 0.174 mol percent and 0.1785 mol percent and 0.1847 mol percent
- PC38:7 in total phospholipid: 0.1181 mol percent and 0.1149 mol percent and 0.1218 mol percent
- PC40:1e in total phospholipid: 0.1903 mol percent and 0.1874 mol percent and 0.1969 mol percent
- PC40:2e in total phospholipid: 0.2001 mol percent and 0.2004 mol percent and 0.2061 mol percent
- PC40:3e in total phospholipid: 0.1401 mol percent and 0.1387 mol percent and 0.1449 mol percent
- PC40:4e in total phospholipid: 0.1234 mol percent and 0.1193 mol percent and 0.1297 mol percent
- PC40:5e in total phospholipid: 0.1139 mol percent and 0.1153 mol percent and 0.1197 mol percent
- PC40:5 in total phospholipid: 0.09044 mol percent and 0.0835 mol percent and 0.08903 mol percent
- PC40:6 in total phospholipid: 0.1315 mol percent and 0.1248 mol percent and 0.1282 mol percent
- PC40:7 in total phospholipid: 0.1778 mol percent and 0.1711 mol percent and 0.1768 mol percent
- PE32:1 in total phospholipid: 0.3976 mol percent and 0.2948 mol percent and 0.3603 mol percent
- PE32:2 in total phospholipid: 0.111 mol percent and 0.1474 mol percent and 0.08107 mol percent
- PE34:0 in total phospholipid: 0.1665 mol percent and 0.1867 mol percent and 0.1531 mol percent
- PE34:1 in total phospholipid: 1.137 mol percent and 1.327 mol percent and 1.144 mol percent
